The text below walks through data of patent US20240360174A1, “CELL-PENETRATING PEPTIDE SEQUENCES” (Ohio State Innovation Foundation, priority 2016, published 2024).

Bridge positions count the residues as written; N and C are the ends. Square brackets hold non-standard residues; d marks the D form. Ends that are not written are not given here. 2Nal = N[C@@H](Cc1ccc2ccccc2c1)C(=O)O; d2Nal = N[C@H](Cc1ccc2ccccc2c1)C(=O)O; Pip = O=C(O)[C@@H]1CCCCN1

In the experiment the test system is HeLa cells. Put plainly: Cellular uptake / cytosolic delivery efficiency of NF-labelled peptides by flow cytometry. The experiment is classed as cell-based. To be noted: 2 h, 5 mM naphthofluorescein-labelled peptide, relative to CPP 1 (100%), mean ± S.D. of three independent experiments. An excerpt:
Absolute cytosolic delivery efficiency is the ratio of cytosolic concentration of a CPP (or a CPP-cargo conjugate) over the concentration of the CPP (or the CPP-cargo conjugate) in the growth medium. Relative cytosolic delivery efficiency refers to the concentration of a CPP in the cytosol compared to the concentration of a control CPP in the cytosol. Quantification can be achieved by fluorescently labeling the CPP (e.g., with a FTIC dye) and measuring the fluorescence intensity using techniques well-known in the art.
In particular embodiments, relative cytosolic delivery efficiency is determined by comparing (i) the amount of a CPP of the invention internalized by a cell type (e.g., HeLa cells) to (ii) the amount of the control CPP internalized by the same cell type. To measure relative cytosolic delivery efficiency, the cell type may be incubated in the presence of a cell-penetrating peptide of the invention for a specified period of time (e.g., 30 minutes, 1 hour, 2 hours, etc.) after which the amount of the CPP internalized by the cell is quantified using methods known in the art, e.g., fluorescence microscopy. Separately, the same concentration of the control CPP is incubated in the presence of the cell type over the same period of time, and the amount of the control CPP internalized by the cell is quantified.
To determine cellular uptake efficiency of the CPPs disclosed herein, HeLa cells were cultured in 12-well plates (1.5×10^5 cells per well) overnight. The cells were incubated for 2 h with […] naphthofluorescein (NF)-labelled peptide in cellular media. At the end of incubation, the cells were washed with DPBS twice, detached from the plate with 0.25% trypsin, diluted into clear DMEM, pelleted at 250 g for 5 min, washed twice with DPBS, resuspended in DPBS, and analyzed on a BD FACS LSR II flow cytometer. For NF-labelled peptides, a 633-nm laser was used for excitation and the fluorescence emission was analyzed in the APC channel. Absolute cellular uptake efficiency was determined by comparing the concentration (via fluorescence intensity) of the CPP in the cytosol to the concentration in the extracellular medium.
On the technique in general: A flow cytometer gives signals particle by particle.
As for “cyclo(Pip-Nal-Phe-Arg-arg-arg-glu) (cyclo([Pip][2Nal]FR[dR][dR][dE]); SMILES N=C(N)NCCC[C@@H]1NC(=O)[C@H](Cc2ccccc2)NC(=O)[C@H](Cc2ccc3ccccc3c2)NC(=O)[C@@H]2CCCCN2C(=O)[C@@H](CCC(=O)O)NC(=O)[C@@H](CCCNC(=N)N)NC(=O)[C@@H](CCCNC(=N)N)NC1=O) [Pin1 19]”, the “Relative Cytosolic Delivery Efficiency” value is 19 ± 16%.
On to cyclo(FRFRRQ) (cyclic) [SAR 22], for which the “Relative Cytosolic Delivery Efficiency” value is on record as 15 ± 3%.
The figure for “cyclo(Pip-Nal-Phe-Arg-arg-arg-Glu) [Pin1 20]” is 15 ± 6%.
Under cyclo(FFFRRRRQ) (cyclic) [SAR 45] stands 122 ± 20%; under “cyclo(ΦFfrRrQ) (cyclo([d2Nal]F[dF][dR]R[dR]Q); SMILES N=C(N)NCCC[C@@H]1NC(=O)[C@@H](CCCNC(=N)N)NC(=O)[C@@H](Cc2ccccc2)NC(=O)[C@H](Cc2ccccc2)NC(=O)[C@@H](Cc2ccc3ccccc3c2)NC(=O)[C@H](CCC(N)=O)NC(=O)[C@@H](CCCNC(=N)N)NC1=O) [SAR 63]”, 50 ± 9%.
Take “cyclo(fΦrRrQ) (cyclo([dF][2Nal][dR]R[dR]Q); SMILES N=C(N)NCCC[C@@H]1NC(=O)[C@@H](CCCNC(=N)N)NC(=O)[C@H](Cc2ccc3ccccc3c2)NC(=O)[C@@H](Cc2ccccc2)NC(=O)[C@H](CCC(N)=O)NC(=O)[C@@H](CCCNC(=N)N)NC1=O) [SAR 65]”: the “Relative Cytosolic Delivery Efficiency” value is reported as 172 ± 37%.
cyclo(FFFRRQ) (cyclic) [SAR 27]: the “Relative Cytosolic Delivery Efficiency” value came to 125 ± 25%.
Under “cyclo(Pip-Nal-Arg-Glu-arg-arg-glu) (cyclo([Pip][2Nal]RE[dR][dR][dE]); SMILES N=C(N)NCCC[C@@H]1NC(=O)[C@H](Cc2ccc3ccccc3c2)NC(=O)[C@@H]2CCCCN2C(=O)[C@@H](CCC(=O)O)NC(=O)[C@@H](CCCNC(=N)N)NC(=O)[C@@H](CCCNC(=N)N)NC(=O)[C@H](CCC(=O)O)NC1=O) [Pin1 15]” stands 7.7 ± 0.5%; under “cyclo(GΦRRRQ) [SAR 44] (cyclo(G[2Nal]RRRRQ); SMILES N=C(N)NCCC[C@@H]1NC(=O)[C@H](Cc2ccc3ccccc3c2)NC(=O)CNC(=O)[C@H](CCC(N)=O)NC(=O)[C@H](CCCNC(=N)N)NC(=O)[C@H](CCCNC(=N)N)NC(=O)[C@H](CCCNC(=N)N)NC1=O)”, 55 ± 5%; under “cyclo(fFfRrRQ) (cyclo([dF]F[dF]R[dR]RQ); SMILES N=C(N)NCCC[C@@H]1NC(=O)[C@@H](CCCNC(=N)N)NC(=O)[C@H](CCCNC(=N)N)NC(=O)[C@@H](Cc2ccccc2)NC(=O)[C@H](Cc2ccccc2)NC(=O)[C@@H](Cc2ccccc2)NC(=O)[C@H](CCC(N)=O)NC1=O) [SAR 59]”, 185 ± 91%.
The figure for SAR 71 (CWWWRRRC; disulfide 1-8) is 135%.
Under cyclo(FFFRAQ) (cyclic) [SAR 26] stands 52 ± 2%; under cyclo(RFFRRRRQ) (cyclic) [SAR 46], 104 ± 5%; under SAR 70 (CFWRRRRC; disulfide 1-8), 49%.
For cyclo(RRFFFRQ) (cyclic) [SAR 37], the “Relative Cytosolic Delivery Efficiency” value is recorded as 172 ± 24%.
Under cyclo(RFFRFRQ) (cyclic) [SAR 43] stands 96 ± 31%.
The figure for cyclo(FFFRRRQ) (cyclic) [SAR 34] is 231 ± 43%.
The figure for “cyclo(fΦfrRrQ) (cyclo([dF][2Nal][dF][dR]R[dR]Q); SMILES N=C(N)NCCC[C@@H]1NC(=O)[C@@H](CCCNC(=N)N)NC(=O)[C@@H](Cc2ccccc2)NC(=O)[C@H](Cc2ccc3ccccc3c2)NC(=O)[C@@H](Cc2ccccc2)NC(=O)[C@H](CCC(N)=O)NC(=O)[C@@H](CCCNC(=N)N)NC1=O) [SAR 62]” is 357 ± 59%; for “cyclo(FFRrRQ) (cyclo(FFR[dR]RQ); SMILES N=C(N)NCCC[C@@H]1NC(=O)[C@H](Cc2ccccc2)NC(=O)[C@H](Cc2ccccc2)NC(=O)[C@H](CCC(N)=O)NC(=O)[C@H](CCCNC(=N)N)NC(=O)[C@@H](CCCNC(=N)N)NC1=O) [SAR 21]” it is 59 ± 7%; for cyclo(FRRFFRRQ) (cyclic) [SAR 52] it is 127 ± 22%.
For cyclo(FFRRFRRQ) (cyclic) [SAR 50], the “Relative Cytosolic Delivery Efficiency” value is on record as 46 ± 2%.
As for cyclo(FFRRFRQ) (cyclic) [SAR 39], the “Relative Cytosolic Delivery Efficiency” value was found to be 86 ± 12%.
Under cyclo(FFRRRRFQ) (cyclic) [SAR 51] stands 162 ± 16%.
For “cyclo(FΦRRRQ) (cyclo(F[2Nal]RRRRQ); SMILES N=C(N)NCCC[C@@H]1NC(=O)[C@H](CCCNC(=N)N)NC(=O)[C@H](CCCNC(=N)N)NC(=O)[C@H](Cc2ccc3ccccc3c2)NC(=O)[C@H](Cc2ccccc2)NC(=O)[C@H](CCC(N)=O)NC(=O)[C@H](CCCNC(=N)N)NC1=O) [SAR 1, control CPP, reference compound]”, the “Relative Cytosolic Delivery Efficiency” value turned out to be 100 ± 6%.
The figure for cyclo(FRRFFRQ) (cyclic) [SAR 40] is 109 ± 11%.
Take cyclo(FRFRFRQ) (cyclic) [SAR 42]: the “Relative Cytosolic Delivery Efficiency” value was 105 ± 14%.
As for cyclo(FFRRRQ) (cyclic) [SAR 19], the “Relative Cytosolic Delivery Efficiency” value is given as 89 ± 34%.
Under “cyclo(GΦRRRQ) [SAR 25] (cyclo(G[2Nal]RRRQ); SMILES N=C(N)NCCC[C@@H]1NC(=O)[C@H](Cc2ccc3ccccc3c2)NC(=O)CNC(=O)[C@H](CCC(N)=O)NC(=O)[C@H](CCCNC(=N)N)NC(=O)[C@H](CCCNC(=N)N)NC1=O)” stands 49 ± 5%.
